Results as given in patent US20210128567A1, “Compositions and Methods for Cognitive, Immune and Digestive Support in Patients with Autism Spectrum Disorder” (FLAASK, LLC, priority 2017, published 2021).

System: children with confirmed ASD diagnoses
Assay: Outcome of therapies received prior to the subject treatment, as reported by parents
Format: in vivo, human

CN1c2c(nc(N)[nH]c2=O)NCC1CNc1ccc(C(=O)N[C@@H](CCC(=O)O)C(=O)O)cc1 (stereo partly shown) [5-metylhydrofolate]
result of prior 5-metylhydrofolate and Metylcobalamin B-12 (patient one, given together): more self-dependence

CC(C)[C@H](N)C(=O)OCCOCn1cnc2c(=O)[nH]c(N)nc21 [Valtrex, valacyclovir]
result of prior treatment by Valtrex and Viferon (patient one, given together): they are getting sick more rarely, learned to swim and to communicate through PECS cards
result of prior Valtrex, according to parents the most effective prior therapy (patient two): they became more communicative, attempts to speak appeared, became calmer, eye contact has improved

Metylcobalamin B-12
result of prior 5-metylhydrofolate and Metylcobalamin B-12 (patient one, given together): more self-dependence
